The record followed here is ChEMBL document CHEMBL1130027, “Improved P1/P1' substituents for cyclic urea based HIV-1 protease inhibitors: synthesis, structure-activity relationship, and X-ray crystal structure analysis” (J Med Chem, 1997).

One data set concerns MT2. Kind of data set: Cellular antiviral activity (IC90) assessed on human MT-2 cells infected with HIV-RF. The format is functional.
Data set [1] has as its target Human immunodeficiency virus type 1 protease (Human immunodeficiency virus 1, UniProt Q72874). Kind of data set: Compound was tested for binding affinity against HIV-1 Protease.
The nature of data set [2]: Oral bioavailability in dog. It counts as ADME, organism-based, Canis lupus familiaris. The conditions noted are these: in vivo.
Data set [3] in a line: The half life in dog. It counts as ADME, organism-based, Canis lupus familiaris. The conditions noted are these: in vivo.
The nature of data set [4]: In vivo evaluation of maximum plasma concentration at a dose of 10 mg/kg. The format is ADME, organism-based. The arrangement: dose 10 mg/kg.

By IC90 is commonly meant the concentration at which the effect reaches the 90% level. Low values mean an effect from little substance, high ones a need for much substance. `O=C1N(Cc2ccccc2)[C@H](Cc2ccc3ccccc3c2)[C@H](O)[C@@H](O)[C@@H](Cc2ccc3ccccc3c2)N1Cc1ccccc1` registered an IC90 with MT2 of 3200 nM.

What is called Ki is the equilibrium dissociation constant of an inhibitor or competing ligand from its target. As for `CC(=O)c1cccc(CN2C(=O)N(Cc3cccc(C(C)=O)c3)[C@H](Cc3ccc4c(c3)N(C)CCO4)[C@H](O)[C@@H](O)[C@H]2Cc2ccc3c(c2)N(C)CCO3)c1`, in data set [1], the Ki was determined as 0.08 nM. The IC90 with MT2 was 16.4 nM.

`O=C1N(Cc2ccc3ccccc3c2)[C@H](Cc2ccc3c(c2)OCCO3)[C@H](O)[C@@H](O)[C@@H](Cc2ccc3c(c2)OCCO3)N1Cc1ccc2ccccc2c1` registered a Ki in data set [1] of 0.04 nM. In the data set with MT2, this compound registered an IC90 of 98 nM.

For orientation: bioavailability means the share of a dose that reaches the circulation, judged against a reference dose that is usually intravenous. A lower bioavailability goes with poor availability. As usually defined, the half-life is how long it takes for the measured level to halve. Lower therefore signals rapid decline. Broadly, the Cmax is the peak of the concentration-time curve. In data set [1], `CNc1cccc(CN2C(=O)N(Cc3cccc(NC)c3)[C@H](Cc3ccc4c(c3)OCCO4)[C@H](O)[C@@H](O)[C@H]2Cc2ccc3c(c2)OCCO3)c1` came in with a Ki of 0.14 nM. The compound also returned a bioavailability in data set [2] of 4.6%. Further, the half-life in data set [3] is 48 min. In the data set on MT2, the IC90 is 8.7 nM. For the same compound, in data set [4], the Cmax worked out at 220 ng/mL.

`O=C1N(Cc2ccc(CO)cc2)[C@H](Cc2ccc3c(c2)OCCO3)[C@H](O)[C@@H](O)[C@@H](Cc2ccc3c(c2)OCCO3)N1Cc1ccc(CO)cc1` displayed a Ki in data set [1] of 0.05 nM. This compound had an IC90 in the data set on MT2 of 83 nM.

With `CNc1cccc(CN2C(=O)N(Cc3cccc(NC)c3)[C@H](Cc3ccc4c(c3)CCO4)[C@H](O)[C@@H](O)[C@H]2Cc2ccc3c(c2)CCO3)c1`, in data set [1], the Ki was 0.2 nM. Further, it took 61.6 nM to reach the 90% level with MT2 (IC90).

Turning to `COc1cc(C[C@@H]2[C@H](O)[C@@H](O)[C@@H](Cc3cc(OC)cc(OC)c3)N(Cc3ccccc3)C(=O)N2Cc2ccccc2)cc(OC)c1`, the affinity in data set [1], expressed as Ki, was 8 nM. In the data set with MT2, this compound yielded an IC90 above 5000 nM.

In data set [1], `COc1ccc(C[C@@H]2[C@H](O)[C@@H](O)[C@@H](Cc3ccc(OC)c(OC)c3)N(Cc3ccccc3)C(=O)N2Cc2ccccc2)cc1OC` registered a Ki of 6.4 nM. Also, the IC90 with MT2 stood at 640 nM.

Consider `Nc1cccc(CN2C(=O)N(Cc3cccc(N)c3)[C@H](Cc3ccc4c(c3)OCCO4)[C@H](O)[C@@H](O)[C@H]2Cc2ccc3c(c2)OCCO3)c1`, for which the affinity in data set [1] corresponds to a Ki of 0.04 nM. Further, the IC90 with MT2 was found to be 40 nM.

On to `O=C1N(Cc2ccc(O)cc2)[C@H](Cc2ccc3c(c2)OCCO3)[C@H](O)[C@@H](O)[C@@H](Cc2ccc3c(c2)OCCO3)N1Cc1ccc(O)cc1`, for which affinity in data set [1] was put at a Ki of 0.03 nM. The compound also yielded an IC90 in the data set on MT2 of 107 nM.

In the data set on MT2, `O=C1N(Cc2ccccc2)[C@H](Cc2ccccc2)[C@H](O)[C@@H](O)[C@@H](Cc2ccccc2)N1Cc1ccccc1` came in with a 90% effect concentration (IC90) of 790 nM.

For the compound `CC(=O)c1cccc(CN2C(=O)N(Cc3cccc(C(C)=O)c3)[C@H](Cc3ccc4c(c3)OCCO4)[C@H](O)[C@@H](O)[C@H]2Cc2ccc3c(c2)OCCO3)c1`, in data set [1], the Ki is 0.04 nM. The IC90 in the data set with MT2 stood at 4.2 nM.

`CC(=O)c1cc(CN2C(=O)N(Cc3ccc(F)c(C(C)=O)c3)[C@H](Cc3ccc4c(c3)OCO4)[C@H](O)[C@@H](O)[C@H]2Cc2ccc3c(c2)OCO3)ccc1F` registered a Ki in data set [1] of 1.5 nM. Moreover, the IC90 with MT2 turned out to be 265 nM.

In data set [1], `CC(=O)c1cccc(CN2C(=O)N(Cc3cccc(C(C)=O)c3)[C@H](Cc3ccc4c(c3)CCO4)[C@H](O)[C@@H](O)[C@H]2Cc2ccc3c(c2)CCO3)c1` registered a Ki of 0.048 nM. In the data set with MT2, it took 10 nM to reach the 90% level (IC90).

For `CN1CCOc2ccc(C[C@@H]3[C@H](O)[C@@H](O)[C@@H](Cc4ccc5c(c4)N(C)CCO5)N(Cc4ccccc4)C(=O)N3Cc3ccccc3)cc21`, in data set [1], the Ki turned out to be 0.7 nM. Besides, the IC90 with MT2 stood at 218 nM.

As to `CC(=O)c1cccc(CN2C(=O)N(Cc3cccc(C(C)=O)c3)[C@H](Cc3ccc4c(c3)OCO4)[C@H](O)[C@@H](O)[C@H]2Cc2ccc3c(c2)OCO3)c1`, affinity in data set [1] was put at a Ki of 0.043 nM. The same compound showed an IC90 with MT2 of 14.7 nM.

For the compound `CC(=O)c1cc(CN2C(=O)N(Cc3ccc(F)c(C(C)=O)c3)[C@H](Cc3ccc4c(c3)OCCO4)[C@H](O)[C@@H](O)[C@H]2Cc2ccc3c(c2)OCCO3)ccc1F`, the Ki in data set [1] worked out at 0.64 nM. For the same compound, the IC90 in the data set on MT2 worked out at 84 nM.

For `COc1cc(C[C@@H]2[C@H](O)[C@@H](O)[C@@H](Cc3cc(OC)cc(OC)c3)N(Cc3cccc(C(C)=O)c3)C(=O)N2Cc2cccc(C(C)=O)c2)cc(OC)c1`, the Ki in data set [1] came to 0.4 nM. Further, the IC90 with MT2 was determined as 46.4 nM.

For the compound `CNc1cccc(CN2C(=O)N(Cc3cccc(N)c3)[C@H](Cc3ccc4c(c3)OCCO4)[C@H](O)[C@@H](O)[C@H]2Cc2ccc3c(c2)OCCO3)c1`, the Ki in data set [1] is 0.11 nM. The 90% effect level in the data set with MT2 (IC90) was put at 27 nM.

Regarding `O=C1N(Cc2ccccc2)[C@H](Cc2ccc3c(c2)CCO3)[C@H](O)[C@@H](O)[C@@H](Cc2ccc3c(c2)CCO3)N1Cc1ccccc1`, in the data set on MT2, the 90% effect level (IC90) was put at 305 nM.

In the case of `O=C1N(CC2CC2)[C@H](Cc2ccc3c(c2)OCCO3)[C@H](O)[C@@H](O)[C@@H](Cc2ccc3c(c2)OCCO3)N1CC1CC1`, in data set [1], the Ki was found to be 0.27 nM. Besides, in the data set on MT2, the IC90 amounted to 928 nM.

Regarding `O=C1N(Cc2ccccc2)[C@H](Cc2ccc3c(c2)OCCO3)[C@H](O)[C@@H](O)[C@@H](Cc2ccc3c(c2)OCCO3)N1Cc1ccccc1`, the Ki in data set [1] came to 0.44 nM. The compound also showed an IC90 in the data set with MT2 of 112 nM.

Consider `O=C1N(Cc2ccccc2)[C@H](Cc2ccc3c(c2)OCO3)[C@H](O)[C@@H](O)[C@@H](Cc2ccc3c(c2)OCO3)N1Cc1ccccc1`, for which, in data set [1], the Ki was 1 nM. Further, in the data set on MT2, the 90% effect level (IC90) was put at 504 nM.

For the compound `Nc1cccc(CN2C(=O)N(Cc3cccc(N)c3)[C@H](Cc3ccc4c(c3)CCO4)[C@H](O)[C@@H](O)[C@H]2Cc2ccc3c(c2)CCO3)c1`, in data set [1], the Ki was 0.11 nM. The same compound came in with an IC90 with MT2 of 30.6 nM.
